The target of one assay is hSERT (Homo sapiens, UniProt P31645, K490T). Description: cell-based.
Assay [1] has as its target iFluoxSnFR. In words: isothermal titration calorimetry. It is filed as binding. The note with it: 3x PBS pH […] °C. (In general: ITC needs no label: the signal is the heat of the interaction.)
The test system of assay [2] is iFluoxSnFR. Description: fluorescence concentration-response of purified biosensor. The class given is binding. To be noted: purified protein.
In assay [3] the test system is iEscSnFR. Described as above. To be noted: purified protein. The class given is binding.
Assay [4] has as its target iEscSnFR. In words: isothermal titration calorimetry. The class given is binding. To be noted: 3x PBS pH […] °C.

Structures are written as SMILES.

Sequence of hSERT (P31645 whole entry K490T): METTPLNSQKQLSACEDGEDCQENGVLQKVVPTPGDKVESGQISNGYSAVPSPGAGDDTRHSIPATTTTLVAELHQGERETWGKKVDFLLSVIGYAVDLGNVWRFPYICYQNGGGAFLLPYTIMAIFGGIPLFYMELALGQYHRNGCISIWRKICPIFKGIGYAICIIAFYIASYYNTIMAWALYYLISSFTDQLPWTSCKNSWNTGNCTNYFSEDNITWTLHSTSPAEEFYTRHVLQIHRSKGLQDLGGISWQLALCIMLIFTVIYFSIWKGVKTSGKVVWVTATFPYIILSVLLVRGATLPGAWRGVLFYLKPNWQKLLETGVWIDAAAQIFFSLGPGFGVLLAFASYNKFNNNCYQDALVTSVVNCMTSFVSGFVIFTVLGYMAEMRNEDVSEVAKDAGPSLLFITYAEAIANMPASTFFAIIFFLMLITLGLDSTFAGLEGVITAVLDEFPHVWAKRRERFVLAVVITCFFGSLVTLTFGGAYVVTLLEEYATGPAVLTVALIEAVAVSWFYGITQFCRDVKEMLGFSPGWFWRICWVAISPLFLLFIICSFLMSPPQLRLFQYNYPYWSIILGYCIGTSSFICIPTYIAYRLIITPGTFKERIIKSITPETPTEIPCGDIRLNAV

One may read the IC50 as the midpoint of a concentration-inhibition curve. The low end stands for greater potency in that assay, the high end for weaker potency in that assay. For orientation: Kd means the equilibrium constant for the complex coming apart. One may read the EC50 as the midpoint of the concentration-response curve. Low readings indicate higher potency in that assay, high ones lower potency in that assay. The compound `C[N+](C)(C)CCC(Oc1ccc(C(F)(F)F)cc1)c1ccccc1` (racemic) [N-N-dimethylfluoxetine] yielded an IC50 at hSERT of 0.6 ± 0.2 µM. The Kd on iFluoxSnFR [1] turned out to be 28.1 ± 3.7 µM. It took 14 ± 0.4 µM to reach a half-maximal effect in the assay on iFluoxSnFR [2] (EC50). In turn, `C[N+](C)(C)CCC[C@@]1(c2ccc(F)cc2)OCc2cc(C#N)ccc21` [N-methylescitalopram] registered a 50% effective concentration (EC50) with iEscSnFR [3] of 1.8 ± 0.2 µM. Take `C[N+](C)(C)CCO` [choline]: in the assay with iEscSnFR [3], the EC50 was determined as 140 ± 20 µM. Turning to `CN(C)CCC[C@@]1(c2ccc(F)cc2)OCc2cc(C#N)ccc21` [escitalopram], a half-maximal response in the assay on iEscSnFR [3] (EC50) required 4.5 ± 0.2 µM. Besides, binding on iEscSnFR [4] was characterised by a dissociation constant (Kd) of 3.4 ± 0.1 µM. Turning to `NCCC(Oc1ccc(C(F)(F)F)cc1)c1ccccc1` (centres unmarked) [norfluoxetine], the EC50 in the assay with iFluoxSnFR [2] stood at 63 ± 20 µM.

For the origin of these results see publication doi:10.1101/2022.08.09.502705v1 (biorxiv, 2022).
